The values that follow are results of earlier work, collected in PMC7451048 (Drug metabolism letters, 2019).

The target in one series is T1, BCRP (Homo sapiens, UniProt Q9UNQ0).
T1 sequence (Q9UNQ0 1-655): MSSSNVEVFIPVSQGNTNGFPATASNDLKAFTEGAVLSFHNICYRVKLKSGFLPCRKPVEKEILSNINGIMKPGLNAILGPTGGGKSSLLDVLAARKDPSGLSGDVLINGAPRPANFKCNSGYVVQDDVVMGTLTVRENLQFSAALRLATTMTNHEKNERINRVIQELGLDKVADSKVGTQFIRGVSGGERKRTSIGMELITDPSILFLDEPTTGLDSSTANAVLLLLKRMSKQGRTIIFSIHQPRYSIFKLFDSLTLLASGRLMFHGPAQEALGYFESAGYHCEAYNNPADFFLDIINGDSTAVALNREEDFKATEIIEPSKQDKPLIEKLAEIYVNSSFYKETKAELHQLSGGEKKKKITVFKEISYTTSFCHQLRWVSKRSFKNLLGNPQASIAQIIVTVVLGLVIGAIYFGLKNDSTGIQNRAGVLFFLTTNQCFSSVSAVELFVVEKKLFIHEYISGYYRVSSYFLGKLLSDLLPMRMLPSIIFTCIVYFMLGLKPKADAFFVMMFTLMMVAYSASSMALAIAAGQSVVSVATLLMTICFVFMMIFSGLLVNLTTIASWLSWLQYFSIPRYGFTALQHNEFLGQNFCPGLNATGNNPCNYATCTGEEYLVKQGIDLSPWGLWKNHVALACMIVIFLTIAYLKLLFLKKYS
As to conditions: read-out: Km for BCRP; membrane vesicles isolated from human placenta; ref [61]; cited from earlier work.

The target of a further series is P-gp (Homo sapiens, UniProt P08183). As to conditions: read-out: Km for P-gp; membrane vesicles isolated from human placenta; ref [61]; cited from earlier work.
P-gp, sequence (P08183 whole entry): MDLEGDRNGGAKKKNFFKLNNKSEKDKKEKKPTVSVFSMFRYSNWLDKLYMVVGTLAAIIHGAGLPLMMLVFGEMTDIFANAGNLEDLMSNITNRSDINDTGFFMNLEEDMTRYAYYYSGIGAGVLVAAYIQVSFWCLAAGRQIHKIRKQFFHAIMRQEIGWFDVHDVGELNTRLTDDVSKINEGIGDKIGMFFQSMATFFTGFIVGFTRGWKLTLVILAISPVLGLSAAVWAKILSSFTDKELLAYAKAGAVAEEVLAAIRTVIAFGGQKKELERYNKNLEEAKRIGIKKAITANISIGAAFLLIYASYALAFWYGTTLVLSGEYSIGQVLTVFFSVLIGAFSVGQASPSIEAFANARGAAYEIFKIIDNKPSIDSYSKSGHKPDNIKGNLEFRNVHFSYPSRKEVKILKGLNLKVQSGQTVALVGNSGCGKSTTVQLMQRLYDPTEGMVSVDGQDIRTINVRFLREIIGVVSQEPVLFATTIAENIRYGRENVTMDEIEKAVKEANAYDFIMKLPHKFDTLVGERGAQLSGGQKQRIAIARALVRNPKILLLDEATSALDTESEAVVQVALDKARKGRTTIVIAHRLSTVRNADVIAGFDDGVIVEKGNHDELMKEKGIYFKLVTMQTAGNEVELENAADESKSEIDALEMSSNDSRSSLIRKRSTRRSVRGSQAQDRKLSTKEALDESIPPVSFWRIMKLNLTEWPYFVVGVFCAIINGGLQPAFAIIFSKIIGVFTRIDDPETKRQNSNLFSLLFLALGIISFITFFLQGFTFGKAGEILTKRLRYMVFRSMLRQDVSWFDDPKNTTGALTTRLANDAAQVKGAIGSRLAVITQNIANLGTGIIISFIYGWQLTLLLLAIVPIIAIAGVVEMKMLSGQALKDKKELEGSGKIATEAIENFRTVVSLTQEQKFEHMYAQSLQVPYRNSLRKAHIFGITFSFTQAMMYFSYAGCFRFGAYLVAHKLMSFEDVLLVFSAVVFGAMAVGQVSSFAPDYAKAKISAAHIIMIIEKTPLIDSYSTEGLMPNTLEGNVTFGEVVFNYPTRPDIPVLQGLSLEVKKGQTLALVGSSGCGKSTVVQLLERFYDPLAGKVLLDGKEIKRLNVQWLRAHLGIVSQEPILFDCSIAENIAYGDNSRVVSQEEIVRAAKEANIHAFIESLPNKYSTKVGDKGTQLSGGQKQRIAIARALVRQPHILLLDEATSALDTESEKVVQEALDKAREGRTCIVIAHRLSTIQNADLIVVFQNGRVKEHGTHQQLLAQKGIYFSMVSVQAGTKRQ
The conditions of series [1]: co-administration of clopidogrel and ticlopidine; ref [25]; cited from earlier work.
Series [2] deals with OCT/PMAT/MATE transporters. As to conditions: read-out: IC50 (OCT/PMAT/MATE inhibitor); reported; ref [44]–[47]; cited from earlier work.

With `CC(NC(C)(C)C)C(=O)c1cccc(Cl)c1` (centres unmarked) [BUP, Bupropion], the Michaelis-Menten constant (Km) – broadly, the substrate concentration at which the rate is half of its maximum – on BCRP was 3 µM. Also, the Km on P-gp is 0.5 µM. In addition, in series [1], the Difference in half-life entry was “no significant difference” and the “Increase in systemic exposure (AUC)” value is recorded as 36–61%.
With `CCN1/C(=C/c2ccc3ccccc3[n+]2CC)C=Cc2ccccc21` [D-22, Decynium-22], the IC50 in series [2] was 13.8 to 21.9 µM.
